Values after ≈ are worked out from the molar mass of the structure shown.
Assays:
Escherichia coli [1] = assay: Antibacterial activity against Escherichia coli RCMB 010052 assessed as diameter of zone inhibition after 24 hrs by agar well diffusion assay; format: functional
Pseudomonas aeruginosa [2] = assay: Antibacterial activity against Pseudomonas aeruginosa RCMB 010043 after 24 hrs by serial dilution method; format: functional; settings: RCMB 010043, 24 h
Escherichia coli [3] = assay: Antibacterial activity against Escherichia coli RCMB 010052 after 24 hrs by serial dilution method; format: functional; settings: RCMB 010052, 24 h
[4] = Selectivity index, ratio of IC50 for human WI38 cells to MIC for Mycobacterium tuberculosis RCMB 010126 clinical isolate; format: toxicity; settings: read-out: Selectivity Index
CCRF-CEM = assay: Growth inhibition of human CCRF-CEM cells assessed as cell growth at 10^-5 M incubated for 48 hrs by sulforhodamine B assay relative to control; format: cell-based; parameters: scale not given: the % may be the effect or the level left; settings: 10 µM
HL-60(TB) = assay: Growth inhibition of human HL-60(TB) cells assessed as cell growth at 10^-5 M incubated for 48 hrs by sulforhodamine B assay relative to control; format: cell-based; parameters: scale not given: the % may be the effect or the level left; settings: 10 µM
RPMI-8226 = assay: Growth inhibition of human RPMI8226 cells assessed as cell growth at 10^-5 M incubated for 48 hrs by sulforhodamine B assay relative to control; format: cell-based; parameters: scale not given: the % may be the effect or the level left; settings: rpmi-8226, 48 h, 10 µM
HOP-62 = assay: Growth inhibition of human HOP62 cells assessed as cell growth at 10^-5 M incubated for 48 hrs by sulforhodamine B assay relative to control; format: cell-based; parameters: scale not given: the % may be the effect or the level left; settings: hop-62, 48 h, 10 µM
NCI-H460 = assay: Growth inhibition of human NCI-H460 cells assessed as cell growth at 10^-5 M incubated for 48 hrs by sulforhodamine B assay relative to control; format: cell-based; parameters: scale not given: the % may be the effect or the level left; settings: nci-h460, 48 h, 10 µM
COLO 205 = assay: Growth inhibition of human COLO205 cells assessed as cell growth at 10^-5 M incubated for 48 hrs by sulforhodamine B assay relative to control; format: cell-based; parameters: scale not given: the % may be the effect or the level left; settings: colo 205, 48 h, 10 µM
HCT-116 = assay: Growth inhibition of human HCT116 cells assessed as cell growth at 10^-5 M incubated for 48 hrs by sulforhodamine B assay relative to control; format: cell-based; parameters: scale not given: the % may be the effect or the level left; settings: hct-116, 48 h, 10 µM
HCT-15 = assay: Growth inhibition of human HCT15 cells assessed as cell growth at 10^-5 M incubated for 48 hrs by sulforhodamine B assay relative to control; format: cell-based; parameters: scale not given: the % may be the effect or the level left; settings: hct-15, 48 h, 10 µM
HT-29 = assay: Growth inhibition of human HT-29 cells assessed as cell growth at 10^-5 M incubated for 48 hrs by sulforhodamine B assay relative to control; format: cell-based; parameters: scale not given: the % may be the effect or the level left; settings: ht-29, 48 h, 10 µM
SW-620 = assay: Growth inhibition of human SW620 cells assessed as cell growth at 10^-5 M incubated for 48 hrs by sulforhodamine B assay relative to control; format: cell-based; parameters: scale not given: the % may be the effect or the level left; settings: sw-620, 48 h, 10 µM
SNB-19 = assay: Growth inhibition of human SNB19 cells assessed as cell growth at 10^-5 M incubated for 48 hrs by sulforhodamine B assay relative to control; format: cell-based; parameters: scale not given: the % may be the effect or the level left; settings: snb-19, 48 h, 10 µM
U-251 = assay: Growth inhibition of human U251 cells assessed as cell growth at 10^-5 M incubated for 48 hrs by sulforhodamine B assay relative to control; format: cell-based; parameters: scale not given: the % may be the effect or the level left; settings: u-251, 48 h, 10 µM
SK-MEL-5 = assay: Growth inhibition of human SK-MEL-5 cells assessed as cell growth at 10^-5 M incubated for 48 hrs by sulforhodamine B assay relative to control; format: cell-based; parameters: scale not given: the % may be the effect or the level left; settings: sk-mel-5, 48 h, 10 µM
UACC-257 = assay: Growth inhibition of human UACC257 cells assessed as cell growth at 10^-5 M incubated for 48 hrs by sulforhodamine B assay relative to control; format: cell-based; parameters: scale not given: the % may be the effect or the level left; settings: uacc-257, 48 h, 10 µM
UACC-62 = assay: Growth inhibition of human UACC62 cells assessed as cell growth at 10^-5 M incubated for 48 hrs by sulforhodamine B assay relative to control; format: cell-based; parameters: scale not given: the % may be the effect or the level left; settings: uacc-62, 48 h, 10 µM
OVCAR-3 = assay: Growth inhibition of human OVCAR3 cells assessed as cell growth at 10^-5 M incubated for 48 hrs by sulforhodamine B assay relative to control; format: cell-based; parameters: scale not given: the % may be the effect or the level left; settings: ovcar-3, 48 h, 10 µM
OVCAR-4 = assay: Growth inhibition of human OVCAR4 cells assessed as cell growth at 10^-5 M incubated for 48 hrs by sulforhodamine B assay relative to control; format: cell-based; parameters: scale not given: the % may be the effect or the level left; settings: ovcar-4, 48 h, 10 µM
OVCAR-5 = assay: Growth inhibition of human OVCAR5 cells assessed as cell growth at 10^-5 M incubated for 48 hrs by sulforhodamine B assay relative to control; format: cell-based; parameters: scale not given: the % may be the effect or the level left; settings: ovcar-5, 48 h, 10 µM
OVCAR-8 = assay: Growth inhibition of human OVCAR8 cells assessed as cell growth at 10^-5 M incubated for 48 hrs by sulforhodamine B assay relative to control; format: cell-based; parameters: scale not given: the % may be the effect or the level left; settings: ovcar-8, 48 h, 10 µM
SK-OV-3 = assay: Growth inhibition of human SKOV3 cells assessed as cell growth at 10^-5 M incubated for 48 hrs by sulforhodamine B assay relative to control; format: cell-based; parameters: scale not given: the % may be the effect or the level left; settings: sk-ov-3, 48 h, 10 µM
A498 = assay: Growth inhibition of human A498 cells assessed as cell growth at 10^-5 M incubated for 48 hrs by sulforhodamine B assay relative to control; format: cell-based; parameters: scale not given: the % may be the effect or the level left; settings: a498, 48 h, 10 µM
ACHN = assay: Growth inhibition of human ACHN cells assessed as cell growth at 10^-5 M incubated for 48 hrs by sulforhodamine B assay relative to control; format: cell-based; parameters: scale not given: the % may be the effect or the level left; settings: 10 µM
RXF 393 = assay: Growth inhibition of human RXF393 cells assessed as cell growth at 10^-5 M incubated for 48 hrs by sulforhodamine B assay relative to control; format: cell-based; parameters: scale not given: the % may be the effect or the level left; settings: rxf 393, 48 h, 10 µM
TK-10 = assay: Growth inhibition of human TK10 cells assessed as cell growth at 10^-5 M incubated for 48 hrs by sulforhodamine B assay relative to control; format: cell-based; parameters: scale not given: the % may be the effect or the level left; settings: tk-10, 48 h, 10 µM
UO-31 = assay: Growth inhibition of human UO31 cells assessed as cell growth at 10^-5 M incubated for 48 hrs by sulforhodamine B assay relative to control; format: cell-based; parameters: scale not given: the % may be the effect or the level left; settings: uo-31, 48 h, 10 µM
PC-3 = assay: Growth inhibition of human PC3 cells assessed as cell growth at 10^-5 M incubated for 48 hrs by sulforhodamine B assay relative to control; format: cell-based; parameters: scale not given: the % may be the effect or the level left; settings: pc-3, 48 h, 10 µM
BT-549 = assay: Growth inhibition of human BT549 cells assessed as cell growth at 10^-5 M incubated for 48 hrs by sulforhodamine B assay relative to control; format: cell-based; parameters: scale not given: the % may be the effect or the level left; settings: bt-549, 48 h, 10 µM
T47D = assay: Growth inhibition of human T47D cells assessed as cell growth at 10^-5 M incubated for 48 hrs by sulforhodamine B assay relative to control; format: cell-based; parameters: scale not given: the % may be the effect or the level left; settings: 10 µM
Staphylococcus aureus = assay: Potency index, ratio of ciprofloxacin MIC to compound MIC for Staphylococcus aureus RCMB 010028; format: functional
Pseudomonas aeruginosa [5] = assay: Potency index, ratio of ciprofloxacin MIC to compound MIC for Pseudomonas aeruginosa RCMB 010043; format: functional
[6] = Stability in mouse RAW264.7 cells measured after 48 hrs; format: ADME, cell-based; settings: raw264.7, 48 h

SMILES | diameter of the inhibition zone (DIZ) (Escherichia coli [1]) | MIC (Pseudomonas aeruginosa [2]) | MIC (Escherichia coli [3]) | selectivity ratio [4] | Activity (CCRF-CEM) | Activity (HL-60(TB)) | Activity (RPMI-8226) | Activity (HOP-62) | Activity (NCI-H460) | Activity (COLO 205) | Activity (HCT-116) | Activity (HCT-15) | Activity (HT-29) | Activity (SW-620) | Activity (SNB-19) | Activity (U-251) | Activity (SK-MEL-5) | Activity (UACC-257) | Activity (UACC-62) | Activity (OVCAR-3) | further results
CC(=O)c1sc(/N=C2\NC(=O)/C(=C3/C(=O)N(C)c4ccc(Cl)cc43)S2)nc1C | 25.1 mm | 0.98 µg/mL (≈ 2.26 µM) | 0.49 µg/mL (≈ 1.13 µM) | 50 | 111% | 98.79% | 110.22% | 116.23% | 113.18% | 108.28% | 94.04% | 101.97% | 98.45% | 119.01% | 98.6% | 113.76% | 97.1% | 114.2% | 84.61% | 96.17% | Activity (OVCAR-4): 94.35%; Activity (OVCAR-5): 104.59%; Activity (OVCAR-8): 117.64%; Activity (SK-OV-3): 117.19%; Activity (A498): 104.41%; Activity (ACHN): 104.32%; Activity (RXF 393): 106.08%; Activity (TK-10): 118.37%; Activity (UO-31): 90.16%; Activity (PC-3): 96.23%; Activity (BT-549): 94.91%; Activity (T47D): 106.34%; Ratio (Staphylococcus aureus): 2; Ratio (Pseudomonas aeruginosa [5]): 4; Stability [6]: Stable
CCOC(=O)c1sc(/N=C2\NC(=O)/C(=C3/C(=O)N(Cc4ccccc4)c4ccc(Cl)cc43)S2)nc1C | 23.4 mm | 1.95 µg/mL (≈ 3.62 µM) | 0.98 µg/mL (≈ 1.82 µM) | 133 | 98.38% | 105.41% | 99.02% | 98.01% | 101.98% | 101.47% | 96.07% | 100.31% | 100.13% | 98.41% | 103.82% | 99.74% | 101.5% | 106.14% | 103.68% | 105.46% | Activity (OVCAR-4): 110.06%; Activity (OVCAR-5): 112.65%; Activity (OVCAR-8): 103.48%; Activity (SK-OV-3): 103.42%; Activity (A498): 104.48%; Activity (ACHN): 110.67%; Activity (RXF 393): 105.33%; Activity (TK-10): 97.92%; Activity (UO-31): 91.72%; Activity (PC-3): 91.84%; Activity (BT-549): 103.71%; Activity (T47D): 96.84%; Ratio (Staphylococcus aureus): 2; Ratio (Pseudomonas aeruginosa [5]): 2; Stability [6]: Stable
